The text below walks through data of patent US20230271953A1, “Novel compounds for treatment of diseases related to DUX4 expression” (Facio Intellectual Property B.V., priority 2019, published 2023).

In this assay the test system is DUX4. As to the kind of experiment: DUX4 repression assay in primary FSHD cells (protocol of Example 2 of WO2019/115711). It is filed as cell-based, human. As to conditions: incubated 72 hours, Table 2.3 (additional results), binned. As for the experimental part: The DUX4 repression of compounds of general formula (I) was assayed following a known protocol (the protocol of Example 2 of WO2019/115711). Several compounds were incubated with primary FSHD cells for 72 hours. Results are shown in Table 2.2, showing DUX4 Count % inhibition.

For `OC1CN(c2ccc3nc(-c4ccc(F)cc4)n(-c4ccncc4)c3n2)C1` [Compound 98, 1-[2-(4-fluorophenyl)-3-(pyridin-4-yl)-3H-imidazo[4,5-b]pyridin-5-yl]azetidin-3-ol], the “DUX4 Count % inhibition” value is recorded as “fall outside of the bins”. With `C[C@@H]1CNCCN1c1ccc2nc(-c3cccc(C#N)c3)n(-c3ccncc3)c2n1` [Compound 188-R, 3-{5-[(2R)-2-methylpiperazin-1-yl]-3-(pyridin-4-yl)-3H-imidazo[4,5-b]pyridin-2-yl}benzonitrile], the “DUX4 Count % inhibition” value is listed as “fall outside of the bins”. Turning to `Fc1ccc(-c2nc3ccc(N4CC(N5CCCC5)C4)nc3n2-c2ccncc2)cc1` [Compound 106, 4-[2-(4-fluorophenyl)-5-[3-(pyrrolidin-1-yl)azetidin-1-yl]-3H-imidazo[4,5-b]pyridin-3-yl]pyridine], the “DUX4 Count % inhibition” value is “fall outside of the bins”.
